Converted amounts (≈) assume the structure as drawn. The source made the active and inactive calls. The rule behind the calls is not given here.
Tests used:
[1] = Inhibition of Stenotrophomonas maltophilia NDM1 expressed in Escherichia coli BL21 (DE3) expressing measured after 15 minutes at interval of 60 secs
Escherichia coli [2] = experiment: Effect on growth of Escherichia coli isolate 14 after 24 hrs by broth microdilution method; type: organism-based
[3] = Non-competitive inhibition of bacterial NDM1 (G28 to R270 residues) expressed in Escherichia coli BL21 (DE3) using varying levels of MEPM as substrate preincubated for 15 mins followed by substrate addition measured at 60 secs interval up to 60 mins by Lineweaver-Burk plot analysis; parameters: species or system Bacteria
Escherichia coli [4] = experiment: Effect on growth of Escherichia coli isolate 3 after 24 hrs by broth microdilution assay; type: organism-based
Enterobacter cloacae [5] = experiment: Inhibition of NDM1 in Enterobacter cloacae isolate 6 assessed as potentiation of meropenem-induced antibacterial activity by measuring meropenem MIC after 24 hrs by broth microdilution assay (reference value: 320 ug/ml)
Enterobacter cloacae [6] = experiment: Effect on growth of Enterobacter cloacae isolate 16 after 24 hrs by broth microdilution method; type: organism-based
Escherichia coli [7] = experiment: Inhibition of NDM1 in Escherichia coli isolate 1 assessed as potentiation of meropenem-induced antibacterial activity by measuring meropenem MIC after 24 hrs by broth microdilution assay (reference value: 1280 ug/ml)
[8] = Hemolytic activity in sheep RBC at 1000 ug/ml measured after 1 hr relative to control; type: ADME, cell-based, Ovis aries, Erythrocyte; details: sheep red blood cells (erythrocytes), read-out: Activity
Enterobacter cloacae [9] = experiment: Effect on growth of Enterobacter cloacae isolate 4 after 24 hrs by broth microdilution assay; type: organism-based
[10] = system: Stenotrophomonas maltophilia; experiment: Potency index, ratio of EDTA IC50 to test compound IC50 for Stenotrophomonas maltophilia NDM1 expressed in Escherichia coli BL21 (DE3) expressing measured after 15 minutes at interval of 60s
[11] = molecular target: T1, Metallo-beta-lactamase NDM-4 (Escherichia coli) (UniProt H6WZS9); experiment: Inhibition of NDM4 in Escherichia coli isolate 3 assessed as potentiation of meropenem-induced bactericidal activity by measuring bacterial killing in early exponential phase at 64 ug/ml incubated for 24 hrs followed by replating on agar plates for 16 to 18 hrs and measured up to 24 hrs by time kill assay; details: TDE = time-dependent effect
T1 sequence (whole entry): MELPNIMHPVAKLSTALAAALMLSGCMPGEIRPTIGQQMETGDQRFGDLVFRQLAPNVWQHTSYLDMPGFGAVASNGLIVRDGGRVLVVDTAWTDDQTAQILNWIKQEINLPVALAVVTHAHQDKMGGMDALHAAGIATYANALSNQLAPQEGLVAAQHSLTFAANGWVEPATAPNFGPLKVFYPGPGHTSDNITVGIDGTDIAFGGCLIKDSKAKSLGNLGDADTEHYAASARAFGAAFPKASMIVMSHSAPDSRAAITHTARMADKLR

Klebsiella pneumoniae [12] = experiment: Inhibition of IMP4 in Klebsiella pneumoniae isolate 17 assessed as potentiation of meropenem-induced antibacterial activity by measuring meropenem MIC after 24 hrs by broth microdilution method (reference value: 32 ug/ml)
Escherichia coli [13] = experiment: Effect on growth of Escherichia coli isolate 2 after 24 hrs by broth microdilution assay; type: organism-based
Citrobacter freundii = experiment: Effect on growth of Citrobacter freundii isolate 7 after 24 hrs by broth microdilution assay; type: organism-based
[14] = molecular target: T1, Metallo-beta-lactamase NDM-4 (Escherichia coli); experiment: Inhibition of NDM4 in Escherichia coli isolate 3 assessed as potentiation of meropenem-induced bactericidal activity at 4 times MIC incubated for 24 hrs followed by replating on agar plates for 16 to 18 hrs and measured up to 24 hrs by time kill assay
[15] = molecular target: T1, Metallo-beta-lactamase NDM-4 (Escherichia coli); experiment: Inhibition of NDM4 in Escherichia coli ATCC 25922 assessed as potentiation of meropenem-induced antibacterial activity by measuring diameter of inhibition zone measured after 18 hrs by agar disk diffusion method
HeLa [16] = experiment: Cytotoxicity against human HeLa cells assessed as inhibition of growth after 24 hrs by CCK8 assay; type: cell-based
Klebsiella pneumoniae [17] = experiment: Inhibition of IMP4 in Klebsiella pneumoniae isolate 10 assessed as potentiation of meropenem-induced antibacterial activity by measuring meropenem MIC after 24 hrs by broth microdilution method (reference value: 64 ug/ml)
HeLa [18] = experiment: Cytotoxicity against human HeLa cells at 64 ug/mL after 24 hrs by calcein AM/propidium iodide staining based fluorescence microscopic method; type: cell-based
Escherichia coli [19] = experiment: Inhibition of IMP4 in Escherichia coli isolate 14 assessed as potentiation of meropenem-induced antibacterial activity by measuring meropenem MIC after 24 hrs by broth microdilution method (reference value: 16 ug/ml)
Escherichia coli [20] = experiment: Inhibition of IMP4 in Escherichia coli isolate 11 assessed as potentiation of meropenem-induced antibacterial activity by measuring meropenem MIC after 24 hrs by broth microdilution method (reference value: 32 ug/ml)
[21] = molecular target: T1, Metallo-beta-lactamase NDM-4 (Escherichia coli); experiment: Inhibition of NDM4 in Escherichia coli isolate 3 assessed as potentiation of meropenem-induced bactericidal activity by measuring log reduction in bacterial colonies at 64 ug/ml incubated for 24 hrs followed by replating on agar plates for 16 to 18 hrs and measured up to 24 hrs by time kill assay
[22] = molecular target: T1, Metallo-beta-lactamase NDM-4 (Escherichia coli); experiment: Inhibition of NDM4 in Escherichia coli isolate 3 assessed as potentiation of meropenem-induced bactericidal activity by measuring bacterial killing at 64 ug/ml incubated for 24 hrs followed by replating on agar plates for 16 to 18 hrs and measured up to 24 hrs by time kill assay relative to control
[23] = Competitive inhibition of bacterial NDM1 (G28 to R270 residues) expressed in Escherichia coli BL21 (DE3) using varying levels of MEPM as substrate preincubated for 15 mins followed by substrate addition measured at 60 secs interval up to 60 mins by Lineweaver-Burk plot analysis; parameters: species or system Bacteria
HeLa [24] = experiment: Cytotoxicity against human HeLa cells at 128 ug/mL after 24 hrs by calcein AM/propidium iodide staining based fluorescence microscopic method; type: cell-based

IC50 [1] [nM]	MIC (Escherichia coli [2]) [µg/mL]	MIC (Escherichia coli [4]) [µg/mL]	MIC (Enterobacter cloacae [5]) [µg/mL]	MIC (Enterobacter cloacae [6]) [µg/mL]	MIC (Escherichia coli [7]) [µg/mL]	MIC (Enterobacter cloacae [9]) [µg/mL]	MIC (Klebsiella pneumoniae [12]) [µg/mL]	MIC (Escherichia coli [13]) [µg/mL]	MIC (Citrobacter freundii) [µg/mL]	inhibition zone (IZ) [15] [mm]	MIC (Klebsiella pneumoniae [17]) [µg/mL]	MIC (Escherichia coli [19]) [µg/mL]	MIC (Escherichia coli [20]) [µg/mL]	SMILES	hemolysis at 1 h, 1000 ug/ml [8] [%]	inhibition [11]	inhibition [14]	IC50 (HeLa [16]) [µg/mL]	further results
40	32 (≈ 56.1 µM)	64 (≈ 112 µM)	2	32 (≈ 56.1 µM)	0.125	64 (≈ 112 µM)	8	64 (≈ 112 µM)	32 (≈ 56.1 µM)	2 to 5	1	4	4	COc1ccc(CN(CCN(Cc2ccc(OC)cc2)Cc2cccc(C(=O)O)n2)Cc2cccc(C(=O)O)n2)cc1	2.94	Tde	Active	> 1000	Ki [3]: 144 nM; Ratio IC50 [10]: 200; Activity (HeLa [18]): Non-Toxic
170	32 (≈ 96.9 µM)	32 (≈ 96.9 µM)	2	32 (≈ 96.9 µM)	0.125	64 (≈ 194 µM)	8	32 (≈ 96.9 µM)	32 (≈ 96.9 µM)	2 to 5	0.5	4	4	O=C(O)c1cccc(CNCCNCc2cccc(C(=O)O)n2)n1	0.1	Tde	Active	> 1000	FC [21]: 3; inhibition [22]: 99.9%; Ki [23]: 680 nM; Activity (HeLa [24]): Non-Toxic

Source: ChEMBL document CHEMBL4387701, “H2depda: An acyclic adjuvant potentiates meropenem activity in vitro against metallo-β-lactamase-producing enterobacterales” (Eur J Med Chem, 2019)
